As to `*C(=O)Nc1ccc(NC(=O)c2ccc3[nH]c(-c4cc(-c5nc6cc(*)ccc6[nH]5)cc(N5C(=O)c6ccccc6C5=O)c4)nc3c2)cc1` (repeat unit), the glass transition temperature turned out to be 295.00 °C.

Compound `*C(=O)Nc1ccc(NC(=O)c2ccc3c(c2)C(=O)N(c2ccc(Oc4cccc5c(N6C(=O)c7ccc(*)cc7C6=O)cccc45)cc2)C3=O)cc1` (repeat unit) came in with a glass transition temperature of 307.00 °C. Consider `*C(=O)Nc1ccc(NC(=O)c2ccc3c(c2)C(=O)N(c2cccc(P(=O)(c4ccccc4)c4cccc(N5C(=O)c6ccc(*)cc6C5=O)c4)c2)C3=O)cc1` (repeat unit), for which the glass transition temperature was found to be 204.00 °C.

On to `*C(=O)Nc1ccc(Oc2ccc(-c3ccc(Oc4ccc(NC(=O)c5ccc6c(c5)C(=O)N(c5ccc(Oc7ccc(S(=O)(=O)c8ccc(Oc9ccc(N%10C(=O)c%11ccc(*)cc%11C%10=O)cc9)cc8)cc7)cc5)C6=O)cc4)cc3)cc2)cc1` (repeat unit), for which the glass transition temperature was determined as 267.00 °C.

For the compound `*C(=O)Nc1ccc(Oc2ccc(-c3ccc(Oc4ccc(NC(=O)c5ccc6c(c5)C(=O)N(c5ccc(Oc7cccc8c(Oc9ccc(N%10C(=O)c%11ccc(*)cc%11C%10=O)cc9)cccc78)cc5)C6=O)cc4)cc3)cc2)cc1` (repeat unit), the glass transition temperature came out at 310.00 °C. Regarding `*C(=O)Nc1ccc(Oc2ccc(-c3ccc(Oc4ccc(NC(=O)c5ccc6c(c5)C(=O)N(c5ccc(Oc7ccccc7-c7ccccc7Oc7ccc(N8C(=O)c9ccc(*)cc9C8=O)cc7)cc5)C6=O)cc4)cc3)cc2)cc1` (repeat unit), the glass transition temperature is 254.00 °C. For `*C(=O)Nc1ccc(Oc2ccc(C(c3ccc(Oc4ccc(NC(=O)c5ccc6c(c5)C(=O)N(c5ccc(Oc7ccc(C8(c9ccc(Oc%10ccc(N%11C(=O)c%12ccc(*)cc%12C%11=O)cc%10)cc9)CC9CC8C8CCCC98)cc7)cc5)C6=O)cc4)cc3)(C(F)(F)F)C(F)(F)F)cc2)cc1` (repeat unit), the glass transition temperature amounted to 254.00 °C. Compound `*C(=O)Nc1ccc(Oc2ccc(C3(c4ccc(Oc5ccc(NC(=O)c6ccc7c(c6)C(=O)N(c6ccc(Oc8ccc(C9(c%10ccc(Oc%11ccc(N%12C(=O)c%13ccc(*)cc%13C%12=O)cc%11)cc%10)NC(=O)c%10ccccc%109)cc8)cc6)C7=O)cc5)cc4)NC(=O)c4ccccc43)cc2)cc1` (repeat unit) showed a glass transition temperature of 330.00 °C.

The compound `*C(=O)Nc1ccc(Oc2ccc(C3(c4ccc(Oc5ccc(NC(=O)c6ccc7c(c6)C(=O)N(c6cccc(N8C(=O)c9ccc(*)cc9C8=O)c6)C7=O)cc5)cc4)NC(=O)c4ccccc43)cc2)cc1` (repeat unit) had a glass transition temperature of 320.00 °C. Next, `*C(=O)Nc1ccc(Oc2ccc(N3C(=O)c4ccc(*)cc4C3=O)cc2)cc1` (repeat unit): 295.00 °C; `*C(=O)Nc1ccc(S(=O)(=O)c2ccc(NC(=O)c3ccc4c(c3)C(=O)N(c3ccc(NC(=O)Nc5ccc(N6C(=O)c7ccc(*)cc7C6=O)cc5)cc3)C4=O)cc2)cc1` (repeat unit): 205.00 °C. The compound `*C(=O)Nc1ccc2c(c1)Cc1cc(NC(=O)c3ccc4c(c3)C(=O)N(c3ccc(NC(=O)Nc5ccc(N6C(=O)c7ccc(*)cc7C6=O)cc5)cc3)C4=O)ccc1-2` (repeat unit) displayed a glass transition temperature of 224.00 °C. Next, `*CCCCCOc1ccc(NC(=O)c2cccc(C(=O)Nc3ccc(O*)cc3)c2)cc1` (repeat unit): 155.00 °C. Take `*CCOCCOc1ccc(NC(=O)c2cccc(C(=O)Nc3ccc(O*)cc3)c2)cc1` (repeat unit): the glass transition temperature was 155.00 °C.

In the case of `*Cc1ccc2oc(=O)c(C(=O)Nc3ccc(Oc4ccc(C(c5ccc(Oc6ccc(NC(=O)c7cc8cc(*)ccc8oc7=O)cc6)cc5)(C(F)(F)F)C(F)(F)F)cc4)cc3)cc2c1` (repeat unit), the glass transition temperature turned out to be 283.00 °C.

Take `*Nc1cc(NC(=O)Nc2ccc(NC(*)=O)cc2)cc(C(=O)Nc2ccc3c(c2)C(=O)c2ccccc2C3=O)c1` (repeat unit): the glass transition temperature is 184.00 °C. In turn, `*Nc1cc(NC(=O)Nc2ccc(NC(*)=O)cc2)cc(C(=O)Nc2cccc3c2C(=O)c2ccccc2C3=O)c1` (repeat unit) displayed a glass transition temperature of 190.00 °C. As for `*Nc1ccc(NC(=O)c2ccc(NC(=O)c3ccc(P(=O)(c4ccccc4)c4ccc(C(*)=O)cc4)cc3)cc2)cc1` (repeat unit), the glass transition temperature was found to be 243.00 °C. Next, `*Nc1ccc(NC(=O)c2cccc(C(*)=O)c2)cc1` (repeat unit): 295.00 °C; `*Nc1ccc(NC(=O)c2cccc(C(=O)c3ccc(C(*)=O)cc3)c2)cc1` (repeat unit): 257.50 °C; `*OP(=O)(Oc1ccc(NC(=O)Oc2ccc(-c3ccc(OC(=O)Nc4ccc(*)cc4)cc3)cc2)cc1)c1ccccc1` (repeat unit): 34.00 °C. Next, `*Oc1ccc(-c2ccc(Oc3ccc(C(=O)c4ccc(C(=O)c5ccc(*)cc5)cc4)cc3)cc2)cc1` (repeat unit): 173.00 °C. Compound `*Oc1ccc(NC(=C(C#N)C#N)c2ccc(-c3ccc(C(Nc4ccc(*)cc4)=C(C#N)C#N)cc3)cc2)cc1` (repeat unit) came in with a glass transition temperature of 220.00 °C. Next, `*Oc1ccc(NC(=O)c2cc(C(=O)Nc3ccc(Oc4ccc(C(c5ccc(*)cc5)(C(F)(F)F)C(F)(F)F)cc4)cc3)cc([N+](=O)[O-])c2)cc1` (repeat unit): 232.00 °C; `*Oc1ccc(NC(=O)c2ccc(*)cc2)cc1` (repeat unit): 225.00 °C; `*Oc1ccc(NC(=O)c2ccc(C(=O)Nc3ccc(Oc4ccc(C(c5ccc(*)cc5)(C(F)(F)F)C(F)(F)F)cc4)cc3)cc2)cc1` (repeat unit): 243.00 °C. Then `*Oc1ccc(NC(=O)c2ccc(C(=O)Nc3ccc(Oc4ccc(C5(c6ccc(*)cc6)C6CC7CC(C6)CC5C7)cc4)cc3)c3ccccc23)cc1` (repeat unit), with 269.00 °C; and `*Oc1ccc(NC(=O)c2ccc(C(=O)Nc3ccc(Oc4ccc(C5(c6ccc(*)cc6)C6CC7CC(C6)CC5C7)cc4)cc3)cc2)cc1` (repeat unit), with 264.00 °C; and `*Oc1ccc(NC(=O)c2ccc([Si](c3ccccc3)(c3ccccc3)c3ccc(C(*)=O)cc3)cc2)cc1` (repeat unit), with 235.00 °C. The compound `*Oc1ccc(NC(=O)c2cccc(C(=O)Nc3ccc(OC4COC5C(*)COC45)cc3)c2)cc1` (repeat unit) yielded a glass transition temperature of 218.00 °C. Turning to `*Oc1ccc(NC(=O)c2cccc(C(=O)Nc3ccc(Oc4ccc(C5(c6ccc(*)cc6)C6CC7CC(C6)CC5C7)cc4)cc3)c2)cc1` (repeat unit), the glass transition temperature was 273.00 °C. Take `*Oc1ccc2ccc(Oc3ccc(C(=O)Nc4ccc(Oc5ccc(C(c6ccc(Oc7ccc(NC(=O)c8ccc(*)cc8)cc7)cc6)(C(F)(F)F)C(F)(F)F)cc5)cc4)cc3)cc2c1` (repeat unit): the glass transition temperature is 163.00 °C. For `*Oc1cccc(NC(=O)c2cccc(C(=O)Nc3ccc(Oc4ccc(C(=O)c5ccc(*)cc5)cc4)cc3)c2)c1` (repeat unit), the glass transition temperature was 114.00 °C.

In turn, `*c1ccc(NC(=O)Nc2ccc(NC(=O)Nc3ccc(-c4nc(-c5ccc(-c6nc(-c7ccc([N+](=O)[O-])cc7)c(-c7ccc([N+](=O)[O-])cc7)[nH]6)cc5)[nH]c4*)cc3)cc2)cc1` (repeat unit) registered a glass transition temperature of 272.00 °C. `*c1ccc(NC(=O)Nc2ccc(NC(=O)Nc3ccc(-c4nc(-c5ccc([N+](=O)[O-])cc5)[nH]c4*)cc3)cc2)cc1` (repeat unit) gave a glass transition temperature of 292.00 °C. For `*c1ccc(Oc2ccc(C(=O)c3ccc(C(=O)c4ccc(Oc5ccc(-c6cc(*)[nH]n6)cc5)cc4)cc3)cc2)cc1` (repeat unit), the glass transition temperature is 235.00 °C.

Compound `*c1ccc(Oc2ccc(C(=O)c3ccc(C(=O)c4ccc(Oc5ccc(-c6nc(-c7cccc(-c8nc(*)c(-c9ccccc9)[nH]8)c7)[nH]c6-c6ccccc6)cc5)cc4)cc3)cc2)cc1` (repeat unit) returned a glass transition temperature of 262.00 °C. Take `*c1ccc(Oc2ccc(C(=O)c3ccc(C(=O)c4ccc(Oc5ccc(-c6nc(-c7ccccc7)[nH]c6*)cc5)cc4)cc3)cc2)cc1` (repeat unit): the glass transition temperature came out at 248.00 °C. `*c1ccc(Oc2ccc(NC(=O)c3ccc4c(c3)C(=O)N(c3ccc(Sc5ccc(N6C(=O)c7ccc(C(=O)Nc8ccc(Oc9ccc(C%10(*)NC(=O)c%11ccccc%11%10)cc9)cc8)cc7C6=O)cc5)cc3)C4=O)cc2)cc1` (repeat unit): the glass transition temperature is 298.00 °C. Consider `*c1ccc(Oc2ccc(NC(=O)c3cccc(C(=O)Nc4ccc(Oc5ccc(-n6c(=O)c7cc8c(=O)n(*)c(=O)c8cc7c6=O)cc5)cc4)c3)cc2)cc1` (repeat unit), for which the glass transition temperature worked out at 282.00 °C. Then `*c1ccc(Oc2ccc(NC(=O)c3cccc(Oc4ccc5c(c4)C(=O)N(*)C5=O)c3)cc2)cc1` (repeat unit), with 231.00 °C; and `*c1ccc2c(c1)C(=O)N(c1cccc(C(=O)Nc3ccc(NC(=O)c4ccc(NC(=O)c5cccc(N6C(=O)c7ccc(C(*)(C(F)(F)F)C(F)(F)F)cc7C6=O)c5)cc4)cc3)c1)C2=O` (repeat unit), with 328.00 °C. Next, `*c1ccc2c(c1)C(=O)N(c1cccc(C(=O)Nc3ccc(NC(=O)c4cccc(N5C(=O)c6ccc(C(*)(C(F)(F)F)C(F)(F)F)cc6C5=O)c4)cc3)c1)C2=O` (repeat unit): 311.00 °C; `*c1ccc2c(c1)C(=O)N(c1cccc(C(=O)Nc3ccc(Oc4ccc(-c5ccc(Oc6ccc(NC(=O)c7cccc(N8C(=O)c9ccc(C(*)(C(F)(F)F)C(F)(F)F)cc9C8=O)c7)cc6)cc5)cc4)cc3)c1)C2=O` (repeat unit): 280.00 °C; `*c1cccc(C(=O)Nc2ccc(NC(=O)c3cccc(N4C(=O)c5ccc(-c6cccc7c6C(=O)N(*)C7=O)cc5C4=O)c3)cc2)c1` (repeat unit): 328.00 °C.

On to `*c1cccc(C(=O)Nc2ccc(Oc3ccc(-c4ccc(Oc5ccc(NC(=O)c6cccc(N7C(=O)c8ccc(-c9cccc%10c9C(=O)N(*)C%10=O)cc8C7=O)c6)cc5)cc4)cc3)cc2)c1` (repeat unit), for which the glass transition temperature was determined as 275.00 °C.

For the origin of these results see the PolyMetriX glass transition set.
